In patent US20240092784A1, “CONDENSED HETEROCYCLIC COMPOUND” (NISSAN CHEMICAL CORPORATION, priority 2020, published 2024):

Molecular target: human SPR (Homo sapiens (Human), UniProt P35270)
Assay: Evaluation Example 2: Measurement of human SPR inhibitory activity (seven concentrations, sepiapterin absorbance at 420 nm)
Type: biochemical
Conditions: Evaluation Example 2, seven concentrations 0.14 nM to 100 nM, 240 minutes at room temperature, read-out: IC50
Procedure, shortened: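 His-tagged full-length human SPR (1-261) was expressed in E. coli and the tag removed. Enzyme at 150 ng/mL in 100 mM Tris-HCl pH 7.5/0.01% BSA was mixed with compound (0.14–100 nM, seven points), 120 μM sepiapterin and 160 μM NADPH, both as added-solution concentrations. After 240 min at room temperature, remaining sepiapterin was read at 420 nm to give percent inhibition.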

Sequence of human SPR (P35270 whole entry): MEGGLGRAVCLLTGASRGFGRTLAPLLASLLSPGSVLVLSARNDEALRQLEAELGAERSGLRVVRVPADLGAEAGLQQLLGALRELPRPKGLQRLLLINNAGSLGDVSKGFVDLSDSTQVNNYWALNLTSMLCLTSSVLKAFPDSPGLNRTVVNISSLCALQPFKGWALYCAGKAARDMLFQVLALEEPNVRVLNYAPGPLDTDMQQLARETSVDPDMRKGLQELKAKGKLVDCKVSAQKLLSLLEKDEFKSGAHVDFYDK

SMILES	IC50 [nM]
Cc1nn2c(O)c(C(=O)NC3CC3)c(=O)n(CC(C)C)c2c1/C=C/C(=O)N1CC2CCC(C1)O2 [compound 569, (E)-3-(3-(8-Oxa-3-azabicyclo[3.2.1]octan-3-yl)-3-oxoprop-1-en-1-yl)-N-cyclopropyl-7-hydroxy-4-isobutyl-2-methyl-5-oxo-4,5-dihydropyrazolo[1,5-a]pyrimidine-6-carboxamide]	0.67
Cc1nn2c(O)c(C(=O)NC3CC3)c(=O)n(CC(C)C)c2c1/C=C/C(=O)N1CCOC[C@H]1C [compound 570, (R,E)-N-Cyclopropyl-7-hydroxy-4-isobutyl-2-methyl-3-(3-(3-methylmorpholino)-3-oxoprop-1-en-1-yl)-5-oxo-4,5-dihydropyrazolo[1,5-a]pyrimidine-6-carboxamide]	0.75
Cc1nn2c(O)c(C(=O)NC3CC3)c(=O)n(CC(C)C)c2c1/C=C/C(=O)N(C)C1CC1 [compound 572, (E)-N-Cyclopropyl-3-(3-(cyclopropyl(methyl)amino)-3-oxoprop-1-en-1-yl)-7-hydroxy-4-isobutyl-2-methyl-5-oxo-4,5-dihydropyrazolo[1,5-a]pyrimidine-6-carboxamide]	1.1
CC[C@@H]1COCCN1C(=O)/C=C/c1c(C)nn2c(O)c(C(=O)NC3CC3)c(=O)n(CC(C)C)c12 [compound 573, (R,E)-N-Cyclopropyl-3-(3-(3-ethylmorpholino)-3-oxoprop-1-en-1-yl)-7-hydroxy-4-isobutyl-2-methyl-5-oxo-4,5-dihydropyrazolo[1,5-a]pyrimidine-6-carboxamide]	0.88
Cc1nn2c(O)c(C(=O)NC3CC3)c(=O)n(CC(C)C)c2c1/C=C/C(=O)N1CCN(C)CC1 [compound 574, (E)-N-Cyclopropyl-7-hydroxy-4-isobutyl-2-methyl-3-(3-(4-methylpiperazin-1-yl)-3-oxoprop-1-en-1-yl)-5-oxo-4,5-dihydropyrazolo[1,5-a]pyrimidine-6-carboxamide]	0.79
Cc1nn2c(O)c(C(=O)NC3CC3)c(=O)n(CC3CCOCC3)c2c1/C=C/C(=O)N1CCOCC1 [compound 575, (E)-N-Cyclopropyl-7-hydroxy-2-methyl-3-(3-morpholino-3-oxoprop-1-en-1-yl)-5-oxo-4-((tetrahydro-2H-pyran-4-yl)methyl)-4,5-dihydropyrazolo[1,5-a]pyrimidine-6-carboxamide]	0.81
Cc1nn2c(O)c(C(=O)NC3CC3)c(=O)n(CC(C)C)c2c1/C=C/C(=O)N1[C@H](C)COC[C@H]1C [compound 576, N-Cyclopropyl-3-((E)-3-((3R,5R)-3,5-dimethylmorpholino)-3-oxoprop-1-en-1-yl)-7-hydroxy-4-isobutyl-2-methyl-5-oxo-4,5-dihydropyrazolo[1,5-a]pyrimidine-6-carboxamide]	0.86
CO[C@H]1CCN(C(=O)/C=C/c2c(C)nn3c(O)c(C(=O)NC4CC4)c(=O)n(CC(C)C)c23)C1 [compound 577, (S,E)-N-Cyclopropyl-7-hydroxy-4-isobutyl-3-(3-(3-methoxypyrrolidin-1-yl)-3-oxoprop-1-en-1-yl)-2-methyl-5-oxo-4,5-dihydropyrazolo[1,5-a]pyrimidine-6-carboxamide]	1.1
CO[C@@H]1CCN(C(=O)/C=C/c2c(C)nn3c(O)c(C(=O)NC4CC4)c(=O)n(CC(C)C)c23)C1 [compound 578, (R,E)-N-Cyclopropyl-7-hydroxy-4-isobutyl-3-(3-(3-methoxypyrrolidin-1-yl)-3-oxoprop-1-en-1-yl)-2-methyl-5-oxo-4,5-dihydropyrazolo[1,5-a]pyrimidine-6-carboxamide]	0.9
Cc1nn2c(O)c(C(=O)NC3CC3)c(=O)n(CC(C)C)c2c1/C=C/C(=O)N1CCC(F)(F)CC1 [compound 579, (E)-N-Cyclopropyl-3-(3-(4,4-difluoropiperidin-1-yl)-3-oxoprop-1-en-1-yl)-7-hydroxy-4-isobutyl-2-methyl-5-oxo-4,5-dihydropyrazolo[1,5-a]pyrimidine-6-carboxamide]	0.87
Cc1nn2c(O)c(C(=O)NC3CC3)c(=O)n(CC(C)C)c2c1/C=C/C(=O)N1CCC[C@@H]1C [compound 580, (S,E)-N-Cyclopropyl-7-hydroxy-4-isobutyl-2-methyl-3-(3-(2-methylpyrrolidin-1-yl)-3-oxoprop-1-en-1-yl)-5-oxo-4,5-dihydropyrazolo[1,5-a]pyrimidine-6-carboxamide]	0.96
Cc1nn2c(O)c(C(=O)NC3CC3)c(=O)n(CC(C)C)c2c1/C=C/C(=O)N1CCC[C@H]1C [compound 581, (R,E)-N-Cyclopropyl-7-hydroxy-4-isobutyl-2-methyl-3-(3-(2-methylpyrrolidin-1-yl)-3-oxoprop-1-en-1-yl)-5-oxo-4,5-dihydropyrazolo[1,5-a]pyrimidine-6-carboxamide]	1.09
Cc1nn2c(O)c(C(=O)NC3CC3)c(=O)n(CC(C)(C)C)c2c1/C=C/C(=O)N1CCOCC1 [compound 582, (E)-N-Cyclopropyl-7-hydroxy-2-methyl-3-(3-morpholino-3-oxoprop-1-en-1-yl)-4-neopentyl-5-oxo-4,5-dihydropyrazolo[1,5-a]pyrimidine-6-carboxamide]	0.63
Cc1nn2c(O)c(C(=O)NC3CC3)c(=O)n(CC(C)(C)C)c2c1/C=C/C1CCOCC1 [compound 584, (E)-N-Cyclopropyl-7-hydroxy-2-methyl-4-neopentyl-5-oxo-3-(2-(tetrahydro-2H-pyran-4-yl)vinyl)-4,5-dihydropyrazolo[1,5-a]pyrimidine-6-carboxamide]	1.2
CNc1nn2c(O)c(C(=O)NC3CC3)c(=O)n(CC3(C)CCOCC3)c2c1/C=C/C1CCOCC1 [compound 585, (E)-N-Cyclopropyl-7-hydroxy-2-(methylamino)-4-((4-methyltetrahydro-2H-pyran-4-yl)methyl)-5-oxo-3-(2-(tetrahydro-2H-pyran-4-yl)vinyl)-4,5-dihydropyrazolo[1,5-a]pyrimidine-6-carboxamide]	1.23
CCc1nn2c(O)c(C(=O)NC3CC3)c(=O)n(CC(C)C)c2c1/C=C/C(=O)N1CCOCC1 [compound 586, (E)-N-Cyclopropyl-2-ethyl-7-hydroxy-4-isobutyl-3-(3-morpholino-3-oxoprop-1-en-1-yl)-5-oxo-4,5-dihydropyrazolo[1,5-a]pyrimidine-6-carboxamide]	0.99
CC(C)Cn1c(=O)c(C(=O)NC2CC2)c(O)n2ncc(/C=C/C(=O)N3CCC[C@H]3C(=O)N(C)C)c12 [compound 587, (S,E)-N-Cyclopropyl-3-(3-(2-(dimethylcarbamoyl)pyrrolidin-1-yl)-3-oxoprop-1-en-1-yl)-7-hydroxy-4-isobutyl-5-oxo-4,5-dihydropyrazolo[1,5-a]pyrimidine-6-carboxamide]	1.37
CC(C)Cn1c(=O)c(C(=O)NC2CC2)c(O)n2ncc(/C=C/C(=O)N3CCC[C@@H]3C(C)(C)O)c12 [compound 589, (R,E)-N-Cyclopropyl-7-hydroxy-3-(3-(2-(2-hydroxypropan-2-yl)pyrrolidin-1-yl)-3-oxoprop-1-en-1-yl)-4-isobutyl-5-oxo-4,5-dihydropyrazolo[1,5-a]pyrimidine-6-carboxamide]	1.34
CC(C)Cn1c(=O)c(C(=O)NC2CC2)c(O)n2ncc(/C=C/C(=O)N3[C@H](C)CC[C@H]3C)c12 [compound 590, N-Cyclopropyl-3-((E)-3-((2R,5R)-2,5-dimethylpyrrolidin-1-yl)-3-oxoprop-1-en-1-yl)-7-hydroxy-4-isobutyl-5-oxo-4,5-dihydropyrazolo[1,5-a]pyrimidine-6-carboxamide]	1.09
